Target: T1, EP4 receptor (Homo sapiens, UniProt P35408)
T1 construct: expressed in transfected cells; host or cells: Flpin-CHO-EP4 cells (Flp-In CHO host, Chinese hamster ovary)
Test: Antagonist activity against EP4 receptor by cAMP assay
Format: cell-based
Conditions: Flpin-CHO-EP4 cells, PGE2-stimulated cAMP; initial concentration 50 nM, dilution times 4
Protocol: (a) Antagonist Activity Against EP4 Receptor by cAMP Assay:
Experiment Methods: Inoculating Flpin-CHO-EP4 cells (8000 cells/well) into a 384-well plate (6007680-50, PE) with an assay buffer (1×HBSS+20 mM HEPES+0.1% BSA+500 μM IBMX). Preparing 8× compound working solution with the assay buffer. Adding 2.5 μL of the 8× compound working solution to each well in the cell plate according to the plate map and incubating at 37° C. for 10 min. Preparing 8×PGE2 (400 nM) with the assay buffer. Adding 2.5 μL of the 8×PGE2 per well in the cell plate and incubating at 37° C. for 30 min. Diluting the Eu-cAMP tracer (1/50) with a lysis buffer and adding 10 μL per well in the test plate. Diluting Ulight-anti-cAMP (1/150) with a lysis buffer and adding 10 μL per well in the test plate. Incubating at room temperature for 1 h. Reading wavelength signal values at 665 nm and 615 nm on the Envision 2105 plate reader.

T1 sequence (P35408 whole entry): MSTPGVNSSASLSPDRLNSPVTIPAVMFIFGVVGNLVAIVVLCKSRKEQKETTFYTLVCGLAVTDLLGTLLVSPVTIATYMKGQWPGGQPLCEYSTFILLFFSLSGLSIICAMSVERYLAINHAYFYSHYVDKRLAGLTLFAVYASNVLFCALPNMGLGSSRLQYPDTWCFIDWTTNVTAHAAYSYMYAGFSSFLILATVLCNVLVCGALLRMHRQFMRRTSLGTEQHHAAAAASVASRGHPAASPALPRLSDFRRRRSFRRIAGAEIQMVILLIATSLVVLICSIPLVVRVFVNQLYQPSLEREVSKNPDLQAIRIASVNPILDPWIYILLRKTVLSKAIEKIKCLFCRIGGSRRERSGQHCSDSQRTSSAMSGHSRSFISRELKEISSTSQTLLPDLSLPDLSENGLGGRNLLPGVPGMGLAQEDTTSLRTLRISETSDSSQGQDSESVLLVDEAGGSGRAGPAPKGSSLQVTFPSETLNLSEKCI

Compound	IC50 [nM]
Cc1sc2ccn(Cc3ccc(C(F)(F)F)cc3)c2c1C(=O)NC1(c2ccc(C(=O)O)cc2)CC1 [Control compound]	0.351
Cc1sc2ccn(Cc3ccc(S(F)(F)(F)(F)F)cc3)c2c1C(=O)NC1(c2ccc(C(=O)O)cc2)CC1 [Example 1, 4-(1-{[2-methyl-4-(4-(pentafluorothio)benzyl)-4H-thieno[3,2-b]pyrrole-3-carbonyl]amino}-cyclopropyl)carboxylic acid]	0.122

From patent publication US20230399339A1, “HETEROCYCLIC AMIDE DERIVATIVE, PREPARATION METHOD THEREFOR, AND APPLICATION THEREOF” (SHENZHEN ZHONGGE BIOLOGICAL TECHNOLOGY CO., LTD., priority 2021, published 2023)
